One assay has as its target T1, human RORγt (Homo sapiens, UniProt P51449).
T1 sequence (P51449 1-497 isoform P51449-2): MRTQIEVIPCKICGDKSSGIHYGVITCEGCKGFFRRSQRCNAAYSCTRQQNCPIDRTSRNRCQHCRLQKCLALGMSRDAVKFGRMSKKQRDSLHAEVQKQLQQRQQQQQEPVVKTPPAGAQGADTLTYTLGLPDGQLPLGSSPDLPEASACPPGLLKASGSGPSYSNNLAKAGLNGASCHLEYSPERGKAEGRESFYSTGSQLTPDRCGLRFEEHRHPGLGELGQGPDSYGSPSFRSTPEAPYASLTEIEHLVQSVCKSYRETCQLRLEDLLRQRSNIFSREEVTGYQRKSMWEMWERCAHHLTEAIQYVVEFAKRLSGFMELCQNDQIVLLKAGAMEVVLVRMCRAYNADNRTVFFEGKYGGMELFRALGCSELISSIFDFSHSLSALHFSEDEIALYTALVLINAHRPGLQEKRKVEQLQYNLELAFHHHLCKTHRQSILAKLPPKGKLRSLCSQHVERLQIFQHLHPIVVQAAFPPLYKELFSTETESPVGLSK
Briefly: RORE Luciferase/RORγt transactivation assay (IL-17 promoter luciferase reporter in COS-7 cells). Type of assay: cell-based. Also noted: V5-His (named only through the vector pcDNA3.1D/V5-His-TOPO); expressed in transfected cells; host or cells: COS-7 (monkey kidney). The note with it: RORγt activity inhibition, luciferase activity in transfected COS-7 cells, 20 h. On the procedure: It is well known that RORγ binds to a conserved non-coding sequence (CNS) enhancer element in the IL-17 promoter.
Culture medium was changed every 2 days.
The 4.3 Kb human IL-17 promoter containing the RORγ-specific CNS enhancer element was PCR amplified from human genomic DNA and cloned into a pGL3-TKLuc2Cp reporter plasmid.
The luciferase reporter plasmid and the RORγt overexpression plasmid were transfected into COS-7 cell line using 4 μL JetPEI™/μg of DNA. Briefly, 150 ng of DNA (ration 1/2 between RORE-Tk Luc2Cp and cDNA RORγt or the empty vector for the negative control) was served to transfect adherent COS-7 cells in a […] culture flask, in complete medium (see cos-7 cell line culture).
Cells were then detached (using trypsin) and washed by centrifugation at 300 g for 10 minutes. Cell pellet was resuspended in serum free/phenol red free DMEM and seeded in 384 well plates at a density of 10000 cells/well and then incubated for 4 h at 37° C.
Compounds were dissolved in 100% DMSO to obtain 10 mM stock solutions. For each compound, test concentrations were diluted in serum free/phenol red free DMEM using the Genesis Freedom 200™ (TECAN) and added to the cells to obtain a 0.3% DMSO final concentration (in a final volume of 40 μL per well).
The luciferase activity was then measured with 40 μL/well steady-Glo Luciferase assay system (Promega, Madison, Wis.) and after incubation at room temperature for 30 minutes. The luminescence was estimated using the Ultra384 reader (TECAN). Data were collected and analyzed using GraphPad Prism software (GraphPad Software V5.02, San Diego Calif. USA). IC50 in μM and E max in % were reported for each compound.
On the technique in general: Reporter assays use an easily measured gene product as a stand-in for the process of interest.

Assay [1] has as its target T2, RORγt ligand-binding domain (RORγt-LBD) (Homo sapiens, UniProt P51449).
T2 construct: 20 nM recombinantly expressed RORγ-LBD fused to GST
T2 sequence (P51449 269-508 limits assumed): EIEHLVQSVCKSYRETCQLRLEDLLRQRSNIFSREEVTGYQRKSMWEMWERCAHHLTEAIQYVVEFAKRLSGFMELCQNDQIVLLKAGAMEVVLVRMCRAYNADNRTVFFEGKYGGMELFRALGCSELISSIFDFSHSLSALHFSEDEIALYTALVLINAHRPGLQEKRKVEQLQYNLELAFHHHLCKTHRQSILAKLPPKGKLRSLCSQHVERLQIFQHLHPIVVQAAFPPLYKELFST
Briefly: Time-resolved FRET (TR-FRET) RORγt coactivator assay (RIP140 peptide displacement). The note with it: ligand-dependent coactivator-RORγt binding. Type of assay: biochemical. From the text: Time-resolved FRET (TR-FRET) RORγt coactivator assay was used to identify RORγ modulator compounds with ligand-dependent coactivator displacement. The assay uses a d2-labeled anti-GST antibody, synthetic N-terminally biotinylated peptide which is derived from nuclear receptor coactivator protein RIP140, and a RORγt ligand-binding domain (RORγt-LBD) that is tagged with glutathione-S-transferase (GST). The influence of compounds on the RORγ-peptide interaction relies on the binding dependent energy transfer from a donor to an acceptor fluorophor attached to the binding partner of interest. […] For reduction of background from compound fluorescence, TR-FRET method makes use of generic fluorophore labels and time resolved detection.
The assays were done in a final volume of 20 μl in a 384 well plate in a CHAPS buffer (2 mM CHAPS; 1 mM DTT, 2 mM EDTA; 0.1% BSA), containing 20 nM recombinantly expressed RORγ-LBD fused to GST, 30 nM N-terminally biotinylated peptide, 1 nM streptavidin-terbium conjugate and 20 nM d2 labeled-anti-GST. Test compounds were diluted using 10 mM stock solution. The range of the final compound concentrations used in this test was from 0.3 nM to 30 μM (logarithmic scale). DMSO content of the samples was kept at 1%. The assay was equilibrated for 2 hours in the dark at room temperature in 384 well plates (Falcon). The signal was detected by an Ultra384 reader (TECAN). […] Compounds that promote coactivator displacement induce a concentration-dependent decrease in time-resolved fluorescent signal. Data were collected and analyzed using GraphPad Prism software (GraphPad Software V5.02, San Diego Calif. USA). IC50 in μM and E max in % were reported for each compound.
In general terms: In TR-FRET formats the signal depends on donor and acceptor labels being close together.

The structures appear in SMILES notation.

As usually defined, the IC50 is the midpoint of a concentration-inhibition curve.

Consider `Cc1ccc(C(NC(=O)Cc2cc(N3CCS(=O)(=O)CC3)ccc2C)c2ccccc2)c(N2CCOCC2)c1` (stereo not shown) [Cpd. 7, 2-[5-(1,1-dioxo-1-thiomorpholin-4-yl)-2-methylphenyl]-N-{[4-methyl-2-(morpholin-4-yl)phenyl](phenyl)methyl}acetamide], for which the half-maximal inhibitory concentration (IC50) against human RORγt was 1000 to 10000 nM; in assay [1], 100 to 1000 nM.

With `Cc1ccc(C(NC(=O)C(C)(C)c2ccc(N3CCS(=O)(=O)CC3)cc2)c2ccc(C)o2)c(C)c1` (stereo not shown) [Cpd. 40, N-[(2,4-dimethylphenyl)(5-methylfuran-2-yl)methyl]-2-[4-(1,1-dioxo-1-thiomorpholin-4-yl)phenyl]-2-methylpropanamide], the IC50 against human RORγt is 100 to 1000 nM; in assay [1], less than 1000 nM.

Take `Cc1ccc(C(NC(=O)Cc2ncc(N3CCS(=O)(=O)CC3)cn2)c2ccc(C)o2)c(N2CCCCC2)c1` (stereo not shown) [Cpd. 65, 2-[5-(1,1-dioxo-1-thiomorpholin-4-yl)pyrimidin-2-yl]-N-{[4-methyl-2-(piperidin-1-yl)phenyl](5-methylfuran-2-yl)methyl}acetamide]: the half-maximal inhibitory concentration (IC50) against human RORγt is less than 100 nM; in assay [1], less than 1000 nM.

With `Cc1ccc(C(NC(=O)Cc2ccc(N3CCS(=O)(=O)CC3)cn2)c2ccc(C)o2)c(N2CCCCC2)c1` (stereo not shown) [Cpd. 47, 2-[5-(1,1-dioxo-1-thiomorpholin-4-yl)pyridin-2-yl]-N-{[4-methyl-2-(piperidin-1-yl)phenyl](5-methylfuran-2-yl)methyl}acetamide], the IC50 against human RORγt is less than 100 nM; in assay [1], less than 1000 nM.

For the compound `Cc1ccc(C(NC(=O)C2(c3ccc(N4CCS(=O)(=O)CC4)cc3)CC2)c2ccc(C)o2)c(C)c1` (stereo not shown) [Cpd. 64, N-[(2,4-dimethylphenyl)(5-methylfuran-2-yl)methyl]-1-[4-(1,1-dioxo-1-thiomorpholin-4-yl)phenyl]cyclopropane-1-carboxamide], the IC50 against human RORγt fell in the range of 100 to 1000 nM; in assay [1], 1000 to 10000 nM.

On to `Cc1ccc(N2CCS(=O)(=O)CC2)cc1CC(=O)NC(c1ccccc1)c1ccccc1N1CCCCC1` (stereo not shown) [Cpd. 2, 2-[5-(1,1-dioxo-1-thiomorpholin-4-yl)-2-methylphenyl]-N-{phenyl[2-(piperidin-1-yl)phenyl]methyl}acetamide], for which the IC50 (on human RORγt; in assay [1]) was 1000 to 10000 nM each time.

Take `Cc1ccc(C(NC(=O)Cc2ccc(N3CCS(=O)(=O)CC3)cc2)c2ccc(C)o2)c(C(F)(F)F)c1` (stereo not shown) [Cpd. 24, 2-[4-(1,1-dioxo-1-thiomorpholin-4-yl)phenyl]-N-{[4-methyl-2-(trifluoromethyl)phenyl](5-methylfuran-2-yl)methyl}acetamide]: the results for the IC50 (against human RORγt; in assay [1]) were 1000 to 10000 nM and 100 to 1000 nM, respectively.

With `COc1ccc(C(NC(=O)Cc2cnc(N3CCS(=O)(=O)CC3)nc2)c2ccc(C)o2)c(N2CCCCCC2)c1` (stereo not shown) [Cpd. 45, N-{[2-(azepan-1-yl)-4-methoxyphenyl](5-methylfuran-2-yl)methyl}-2-[2-(1,1-dioxo-1-thiomorpholin-4-yl)pyrimidin-5-yl]acetamide], the IC50 on human RORγt is 100 to 1000 nM; in assay [1], less than 1000 nM.

Turning to `Cc1ccc(C(NC(=O)Cc2cnc(N3CCS(=O)(=O)CC3)nc2)c2ccc(C)o2)c(C)c1` (stereo not shown) [Cpd. 35, N-[(2,4-dimethylphenyl)(5-methylfuran-2-yl)methyl]-2-[2-(1,1-dioxo-1-thiomorpholin-4-yl)pyrimidin-5-yl]acetamide], the values for the IC50 (at human RORγt; in assay [1]) were 1000 to 10000 nM and 100 to 1000 nM, respectively.

As for `Cc1ccc(C(NC(=O)Cc2cc(N3CCOCC3)ccc2F)c2ccccc2)c(N2CCCCC2)c1` (stereo not shown) [Cpd. 8, 2-[2-fluoro-5-(morpholin-4-yl)phenyl]-N-{[4-methyl-2-(piperidin-1-yl)phenyl](phenyl)methyl}acetamide], the IC50 against human RORγt lay in the range of 1000 to 10000 nM; in assay [1] it was 100 to 1000 nM.

For `COc1ccc(C(NC(=O)Cc2ccc(N3CCS(=O)(=O)CC3)c(C)c2)c2ccc(C)o2)c(N2CCC(C(F)(F)F)CC2)c1` (stereo not shown) [Cpd. 14, 2-[4-(1,1-dioxo-1-thiomorpholin-4-yl)-3-methylphenyl]-N-({4-methoxy-2-[4-(trifluoromethyl)piperidin-1-yl]phenyl}(5-methylfuran-2-yl)methyl)acetamide], the IC50 (against human RORγt; in assay [1]) was 100 to 1000 nM in each case.

As to `Cc1ccc(C(NC(=O)C2(c3ccc(N4CCS(=O)(=O)CC4)cc3)CCC2)c2ccc(C)o2)c(N2CCCCC2)c1` (stereo not shown) [Cpd. 55, 1-[4-(1,1-dioxo-1-thiomorpholin-4-yl)phenyl]-N-{[4-methyl-2-(piperidin-1-yl)phenyl](5-methylfuran-2-yl)methyl}cyclobutane-1-carboxamide], the IC50 (against human RORγt; in assay [1]) was 100 to 1000 nM throughout.

In the case of `Cc1ccc(C(NC(=O)Cc2cnc(N3CCS(=O)(=O)CC3)nc2C)c2ccc(C)o2)c(C)c1` (stereo not shown) [Cpd. 42, N-[(2,4-dimethylphenyl)(5-methylfuran-2-yl)methyl]-2-[2-(1,1-dioxo-1-thiomorpholin-4-yl)-4-methylpyrimidin-5-yl]acetamide], the IC50 (at human RORγt; in assay [1]) was 1000 to 10000 nM throughout.

In the case of `Cc1ccc(C(NC(=O)Cc2cnc(N3CCS(=O)(=O)CC3)nc2)c2ccc(C)o2)c(Br)c1` (stereo not shown) [Cpd. 34, N-[(2-bromo-4-methylphenyl)(5-methylfuran-2-yl)methyl]-2-[2-(1,1-dioxo-1-thiomorpholin-4-yl)pyrimidin-5-yl]acetamide], the IC50 (against human RORγt; in assay [1]) was 100 to 1000 nM each time.

Take `COc1cc(CC(=O)NC(c2ccc(C)o2)c2ccc(C)cc2N2CCCCC2)ccc1N1CCS(=O)(=O)CC1` (stereo not shown) [Cpd. 29, 2-[4-(1,1-dioxo-1-thiomorpholin-4-yl)-3-methoxyphenyl]-N-{[4-methyl-2-(piperidin-1-yl)phenyl](5-methylfuran-2-yl)methyl}acetamide]: the IC50 against human RORγt was 100 to 1000 nM; in assay [1], less than 1000 nM.

Take `Cc1ccc(C(NC(=O)C2(c3cccc(N4CCS(=O)(=O)CC4)c3)CC2)c2ccc(C)o2)c(N2CCCCC2)c1` (stereo not shown) [Cpd. 58, 1-[3-(1,1-dioxo-1-thiomorpholin-4-yl)phenyl]-N-{[4-methyl-2-(piperidin-1-yl)phenyl](5-methylfuran-2-yl)methyl}cyclopropane-1-carboxamide]: the IC50 against human RORγt is 100 to 1000 nM; in assay [1], less than 1000 nM.

On to `Cc1ccc(C(NC(=O)Cc2cnc(N3CCS(=O)(=O)CC3)nc2)c2ccc(C)o2)c(N2CC3CC3C2)c1` (stereo not shown) [Cpd. 36, N-[(2-{3-azabicyclo[3.1.0]hexan-3-yl}-4-methylphenyl)(5-methylfuran-2-yl)methyl]-2-[2-(1,1-dioxo-1-thiomorpholin-4-yl)pyrimidin-5-yl]acetamide], for which the half-maximal inhibitory concentration (IC50) on human RORγt is 100 to 1000 nM; in assay [1], less than 1000 nM.
